Data reported in patent US20240390376A1, “METHOD FOR PREVENTING ADVERSE PREGNANCY OUTCOMES DUE TO USE OF SELECTIVE SEROTONIN REUPTAKE INHIBITORS (SSRI) DURING GESTATION” (Wisconsin Alumni Research Foundation, priority 2023, published 2024).
Like-named read-outs stand apart in the source and are kept apart here.

Experiments:
[1] = in vivo; cited from earlier work
[2] = cited from earlier work
pregnant mice [3] = assay: Number of mouse pups born in control and treatment groups (FIG. 2A); assay type: in vivo; details: serotonin 4 mg/kg, fluoxetine 2 mg/kg, ketanserin 1 mg/kg, vs saline control
pregnant mice [4] = assay: Experiment 2: as experiment 1, all mice received ketanserin one hour before treatment; assay type: in vivo; details: for maternal weight gain / neonatal weight on postnatal day 0 / litter size / overall neonatal mortality: experiment 2; for maternal weight gain / neonatal weight on postnatal day 0: ketanserin 1 mg/kg daily one hour before saline or serotonin; for litter size / overall neonatal mortality: ketanserin 1 mg/kg daily one hour before saline, fluoxetine or serotonin
Procedure: (§1) To investigate the role of ketanserin, an exemplary serotonin receptors 2A and 2C antagonist, on preventing SSRI-induced adverse pregnancy and neonatal outcomes, pregnant mice were treated with SSRI, serotonin, and SSRI/serotonin+ketanserin.

pregnant C57Bl/6J mice = details: experiment 1; for overall neonatal mortality: control 4.1%
Procedure: as §1

SERT null mice = assay: Ketanserin rescue of neonatal mortality in SERT null mice; assay type: in vivo; details: 49.0% without ketanserin
Procedure: By performing RNA sequencing of placenta from heterozygous Sert+/− mice vs homozygous Sert−/− knockout mice and their respective offspring, it was confirmed that lack of maternal, but not placental or fetal SERT, is associated with placental changes: more than 2,100 genes were differentially expressed in the placenta when the dam was SERT−/−. Importantly, ketanserin also rescued the neonatal mortality in SERT null mice (49.0 vs 23.8% within 24 hours of birth).

placenta of mice = assay: Placenta immunostaining (Tunel, caspase 3, Ki67) and placental size, embryonic day 18.5 (FIG. 2B); details: fluoxetine 20 mg/kg
pregnant sheep [5] = details: cited from earlier work
pregnant mice [6] = details: fluoxetine 2 mg/kg and 20 mg/kg vs control; dose-dependent; FIG. 1C
pregnant sheep [7] = details: in vivo
Excerpt: FIG. 1G compares lamb birthweights between a treatment group and control group.
FIG. 1G compares the lamb birthweights between the treatment group and control group.

[8] = fluoxetine 2 mg/kg or serotonin 5 mg/kg daily

| SMILES | number of pups born [1] | pup mortality [1] | number of pups born (pregnant mice [3]) | maternal weight gain (pregnant mice [4]) | neonatal weight on postnatal day 0 (pregnant mice [4]) | litter size (pregnant mice [4]) | overall neonatal mortality (pregnant mice [4]) | overall neonatal mortality (pregnant C57Bl/6J mice; [8]) | further results |
| --- | --- | --- | --- | --- | --- | --- | --- | --- | --- |
| CN[C@H]1CC[C@@H](c2ccc(Cl)c(Cl)c2)c2ccccc21 [sertraline] | decrease | increase |  |  |  |  |  |  | placental transfer ([2]; low concentrations in the fetal circulation): limited placental transfer |
| NCCc1c[nH]c2ccc(O)cc12 [serotonin, 5-hydroxytryptamine] |  |  | significantly reduced | 10.2 ± 0.6 g | 1.197 ± 0.01 g | 7.0±0.5 | 22.8% | 32.3% | maternal weight gain between DPC10.5 and the day before parturition (pregnant C57Bl/6J mice; fluoxetine 2 mg/kg or serotonin 5 mg/kg daily, DPC 10.5 until parturition): 8.0 ± 0.8 g; litter size (pregnant C57Bl/6J mice; fluoxetine 2 mg/kg or serotonin 5 mg/kg daily, control 8.3): 5.2±0.5; neonatal weight on postnatal day 0 (pregnant C57Bl/6J mice; serotonin 5 mg/kg daily): 1.138 ± 0.028 g; neonatal weight on postnatal day 1 (pregnant C57Bl/6J mice; serotonin 5 mg/kg daily): 1.223 ± 0.028 g |
| O=C(c1ccc(F)cc1)C1CCN(CCn2c(=O)[nH]c3ccccc3c2=O)CC1 [ketanserin, 3-[2-[4-(4-fluorobenzoyl)piperidin-1-yl]ethyl]-1H-quinazoline-2,4-dione] |  |  |  | 11.4 ± 0.5 g | 1.264 ± 0.01 g | 7.0±0.3 | 8.5% |  | placental changes and adverse pregnancy and neonatal outcomes caused by SSRI use (pregnant mice [4]; summary of the ketanserin studies): prevented most placental changes and adverse pregnancy and neonatal outcomes; neonatal mortality within 24 hours of birth (SERT null mice): 23.8% |
| CNCCC(Oc1ccc(C(F)(F)F)cc1)c1ccccc1 (centres unmarked) [fluoxetine] | decrease | increase | significantly reduced |  |  | 7.4±0.6 | 24.3% | 11.6% | pregnancy rates [1]: decreases; Tunel-positive apoptotic cells in the placenta (placenta of mice): visualized; placental size (placenta of mice; ketanserin 1 mg/kg): much reduced; blood perfusion to the uterus (pregnant sheep [5]; third trimester pregnant sheep): rapidly decreased; placentome growth (pregnant sheep [5]; treated during the last month of gestation): decreased placentome growth; placental transfer ([2]; in vivo): about 70%; mouse pup mortality (pregnant mice [6]): decidedly negative effect; average gestational length (pregnant sheep [7]; female, sheep): 147.7 days; lamb birthweights (pregnant sheep [7]): weighed significantly less; placentome diameter (pregnant sheep [7]): significantly smaller |
